Assay results from US20170342136A1, “MONOCLONAL ANTIBODY AGAINST MURAMYL PEPTIDES IN PREVENTION AND TREATMENT OF IMMUNE-MEDIATED DISEASES” (Agency for Science, Technology and Research, priority 2015, published 2017).

How the values were obtained:
[1] = system: Collagen Induced Arthritis (CIA) mouse model; assay: Collagen Induced Arthritis (CIA) mouse model with implanted osmotic pump releasing MDP; format: in vivo, DBA/1J mice
Method: (A) illustrates the subcutaneous implantation of an osmotic pump loaded with 200 µl of 5 mg/ml MDP and released at a rate of 0.25μ1/hr onto the back of a mouse.
DBA/1J mice were induced to develop arthritis by immunization with an emulsion of complete Freund's adjuvant and type II collagen, and each mouse also carried an implanted pump as described in FIG. 5 that releases either PBS or MDP at 0.25 μl/hr.

[2] = Blood MP level after oral amoxicillin, competitive ELISA using 2E7; format: in vivo, mice; details: 100 mg/kg oral at 12-h intervals, 4 h after each feeding
Method: Amoxicillin was administered orally to 50 mice at 12-h intervals and three mice were sacrificed every 4 h to collect blood for peptidoglycan quantification by ELISA. […] Serial blood samples were taken. Time for blood draw and IV injection are indicated.
The MP level in serum was determined by competitive ELISA using an example of the antibody of the present disclosure, i.e. 2E7.

Staphylococcus aureus = assay: MPs in culture supernatant with or without amoxicillin, competitive ELISA using 2E7; format: cell-based; details: 40 μg per ml amoxicillin added at OD600=1.5
Method: (§1) The standard curve was used to determine the peptidoglycan concentration in a sample. […] Both bacteria were grown to OD600=1.5. Each culture was divided into two, and one treated with 40 μg/ml amoxicillin (Amx) and the other untreated. Aliquots were collected at the indicated times and the amount of MPs in the supernatant was determined by competitive ELISA. […] After removing unbound antibodies by PBS washes, the cells were incubated with a FITC-labeled anti-mouse IgG Ab before fluorescence microscopic examination.
(§2) For this test, Gram-positive bacterium Staphylococcus aureus, which has a thick peptidoglycan layer, and Gram-negative Escherichia coli, which has a thin peptidoglycan layer, were selected and grown in the presence or absence of amoxicillin. The culture was grown to a density of OD600=1.5 and then divided into two equal aliquots. To one aliquot, amoxicillin was added to a final concentration of 40 μg per ml, and to the other aliquot, no drug was added. Both cultures were allowed to continue to grow. Aliquots of cultures were collected at timed intervals and cells were removed by centrifugation. The amount of MPs in the supernatant was determined by competitive ELISA using 2E7.

Escherichia coli = assay: as above; format: cell-based; details: 40 μg per ml amoxicillin added at OD600=1.5
Method: as §1, §2

CC(=O)N[C@@H]1[C@@H](O[C@H](C)C(=O)N[C@@H](C)C(=O)N[C@H](CCC(=O)O)C(N)=O)[C@H](O)[C@@H](CO)O[C@H]1O [MDP]
clinical paw scores ([1]; increase in MDP concentration, time dependent, n=4): increased clinical paw scores
development of rheumatoid arthritis ([1]; pump releasing MDP at 0.25 μl/hr vs PBS): promoted the development of rheumatoid arthritis

CC1(C)S[C@@H]2[C@H](NC(=O)[C@H](N)c3ccc(O)cc3)C(=O)N2[C@H]1C(=O)O [amoxicillin]
increase in the blood MP level [2]: 20-60%
molecules in culture medium that inhibit 2E7 binding to MDP (Staphylococcus aureus): sharp increase
molecules in culture medium that inhibit 2E7 binding to MDP (Escherichia coli): sharp increase
